Reference: article PMC7938888, “Antidepressant drugs act by directly binding to TRKB neurotrophin receptors” (Cell, 2021)

Key:
[1] = target: T1, TRKB (Mus musculus, UniProt P15209); test: Cell-free ligand binding assay on immobilised TRKB from HEK293T lysates; parameters: wild-type GFP-tagged full length TRKB or the GFP-tagged Y433F TRKB mutant; host or cells: HEK293T; settings: read-out: Kd of biotinylated FLX binding to immunoprecipitated TRKB; biotinylated ligand 0-100 μM
Description: The cell-free assays (binding assays) were performed in white 96-well plates, based on the protocol used for western-blotting or ELISA ([Baeza-Raja et al., 2016]; [Das et al., 2015]). The plates were precoated with anti-GFP, anti-FLAG, anti-TRK or anti-TRKB antibody (1:1000) in carbonate buffer (pH 9.8), ON at 4°C. Following blocking with 3% BSA in PBS buffer (2 h at RT), 120 ug of total protein from each sample (of lysates from HEK293T cells transfected to overexpress GFP-TRKB.wt or GFP-TRKB.Y433F) were added and incubated overnight at 4°C under agitation. […] The luminescence was determined via HRP-conjugated streptavidin (1:10000, 1h, RT) activity reaction with ECL by a plate reader. The luminescence signal from blank wells (containing all the reagents but the sample lystates, substituted by the blocking buffer) was used as background. The specific signal was then calculated by subtracting the values of blank wells from the values of the samples with matched concentration of the biotinylated ligand. For Figure 2E, the precipitated TRKB.wt or Y433F was incubated with tritiated imipramine (0-30μM) and the radioactive emission of the ligand was determined by scintillation (OptiPhase Supermix cocktail: #1200-439; MicroBeta2, Perkin-Elmer). The scintillation signal from blank wells was used as background, and the specific signal was then calculated by subtracting the values of blank wells from the values of the samples with matched concentration of the radioactive ligand.

[2] = target: T1, TRKB; test: In situ proximity ligation assay (PLA) in TRKB-expressing N2A cells; assay type: cell-based; parameters: expressed in transfected cells; host or cells: N2A; settings: biotinylated fluoxetine 10 μM/15 min
Description: Proximity ligation assay was done with Duolink In Situ Red Starter Kit Mouse/Goat (#DUO92103, Sigma-Aldrich), following manufacturer’s instructions. […] Cells were fixed with PFA 4% for 15 min, washed, and incubated in Duolink blocking buffer for 1h at 37°C. Then, the coverslips were incubated with streptavidin-conjugated HRP (1:5000 in Duolink antibody diluent) for 45 min at room temperature. After washing twice in Duolink washing buffer A, samples were incubated overnight at 4°C with a mix of goat anti-TRKB (1:1000, #AF1494, R&D System) and mouse anti-HRP (1:1000, #200-3138-0100, Rockland Immunochemicals) diluted in Duolink antibody diluent. After washing in Duolink washing buffer A, samples were incubated for 1h at 37°C with a mix of minus and plus probes diluted 1:5 in Duolink antibody diluent. Then, ligation of probes with connector oligo was done by washing the samples in washing buffer A, and incubating for 30min at 37°C with ligase (25 U/ml) diluted in the Duolink ligation buffer. Amplification was done by washing the samples in the washing buffer A, and incubating for 100min at 37°C with polymerase (125 U/ml) diluted in the amplification buffer. Coverslips were washed in buffer B, then in buffer B diluted 1:100 in milliQ water, and mounted in Duolink in situ mounting medium with DAPI. All incubation steps were done in a humidified chamber. […]

[3] = target: T2, TRKA (Homo sapiens, UniProt P04629); test: Cell-free ligand binding assay, TRKA from MG87 cells; settings: compared to TRKB
T2 construct: expressed in transfected cells; host or cells: MG87.TRKA (NIH 3T3 mouse fibroblasts stably expressing TRKA)

[4] = tested on: TRKB:PLC-γ1 interaction; test: TRKB:PLC-γ1 interaction ELISA in cortical cells; assay type: cell-based, rat; settings: pravastatin 1 μM/3 days
Description: The TRKB:pY (phosphorylated TRKB), TRKB:PLC-γ1, PLC-γ1:pTRKB.Y816 interactions and were determined by ELISA, based on the general method described in literature ([Antila et al., 2014]; [Fred et al., 2019]), with minor adjustments. Briefly, white 96-well plates (OptiPlate 96F-HB, Perkin Elmer) were coated with capturing anti-TRKB or PLC-γ1 antibody (1:1000) in carbonate buffer (pH = 9.8) overnight (ON) at 4°C. Following a blocking step with 2%BSA in TBS-T (2 h, RT), samples were incubated ON at 4°C. The incubation with antibody against pTRKB.Y816, PLC-γ1 or pY (1:2000, ON, 4°C) was followed by HRP-conjugated anti-Rb IgG (1:5000, 2h, RT) or HRP-conjugated streptavidin (1:10000, 2h, RT). Finally, the chemiluminescent signal generated by the reaction with ECL was analyzed in a plate reader (Varioskan Flash, Thermo Scientific).

[5] = tested on: E18 cortical cells; test: Cell viability (CellTiterGlo) of cortical cells; assay type: cell-based, rat; settings: pravastatin 2 μM for 5 days
Description: The cell viability assay was performed using CellTiterGlo (#G7571; Promega) according to manufacturer’s instructions. Briefly, equal amounts of medium and the mixture of regents A and B were added to the E18 cortical cells (DIV8) cultivated in clear bottom 96-well plates and incubated for 40min. The luminescence was analyzed in a plate reader.

[6] = tested on: hippocampal cells; test: BDNF-induced neurite branching in hippocampal cells (Sholl analysis); assay type: cell-based, rat; settings: pravastatin 1 μM/3 days, BDNF 10 ng/ml/3 days
Description: MG87.TRKB or primary cultured cortical cells were fixed with 4% paraformaldehyde in PBS, and unspecific binding sites were blocked with a blocking buffer (5% normal donkey serum, 1% Bovine serum albumin, 0.1% gelatin, 0.1% Triton X-100, 0.05% Tween-20 in PBS). The MG87.TRKB cells were stained with anti-GFP, while primary cultures were incubated with anti-actin. The fluorescence was obtained following incubation with secondary antibodies. The coverslips were mounted with Dako Fluorescence Mounting Medium (#S3023). Images were acquired with Zeiss LSM710 confocal microscope (63x oil objective).
For Sholl analysis of cultured hippocampal cells, confocal images were processed using FIJI ImageJ (NIH software), and the number of branches in the 80-μm range from the cell soma were counted using FIJI plugin.

[7] = tested on: mice; test: Object location memory (OLM) test; assay type: in vivo, mouse; settings: wild-type mice, pravastatin co-treatment
Description: Object-location memory (OLM): this test was performed in a square arena (28cm side) with opaque walls containing cues (black stripes or spots). The adult male and female mice (18-22 weeks old) were placed for 3 consecutive days (15min per session) in the arena with two identical objects (table tennis balls glued to caps of 50ml Falcon tubes) in the same position throughout the sessions (pretest).

[8] = tested on: Sprague-Dawley rats; test: BDNF-induced LTP in dentate gyrus of anesthetized rats; assay type: in vivo, rat; settings: pravastatin 10 mg/kg/day/ in drinking water
Description: In vivo electrophysiology. Intrahippocampal BDNF infusion was performed as described previously ([Messaoudi et al., 1998]). The experiments were carried out on 20 adult male Sprague-Dawley rats (15 weeks old, Janvier, France). Rats were housed in the animal facility for 1-week prior to the start of drug administration. […]
For electrophysiological experiments, rats were anesthetized with an intraperitoneal injection of urethane (U2500, Sigma-Aldrich) 1.5 g/kg body weight, positioned in a stereotaxic frame. The body temperature was constantly monitored and maintained at 37°C with an electric heating pad. Holes were drilled in the skull and a concentric bipolar stimulating electrode (Tip separation 500micrometers; SNEX 100; Rhodes Medical Instruments, Woodland Hills, CA) was positioned in the angular bundle for stimulation of the medial perforant path (7.9 mm posterior to bregma, 4.2 mm lateral to the midline, and 2.5 mm below the dura. […]
Responses were allowed to stabilize for 1 hour at a stimulation intensity that produced a population spike 30% of maximum. […] Evoked responses were recorded for 120 min post infusion. Recorded field potentials were amplified, filtered (0.1 Hz to 10 kHz), and digitized (25 kHz). Electrophysiological data was analyzed using Datawave Technologies Software company. […]

T1 sequence (P15209 32-821): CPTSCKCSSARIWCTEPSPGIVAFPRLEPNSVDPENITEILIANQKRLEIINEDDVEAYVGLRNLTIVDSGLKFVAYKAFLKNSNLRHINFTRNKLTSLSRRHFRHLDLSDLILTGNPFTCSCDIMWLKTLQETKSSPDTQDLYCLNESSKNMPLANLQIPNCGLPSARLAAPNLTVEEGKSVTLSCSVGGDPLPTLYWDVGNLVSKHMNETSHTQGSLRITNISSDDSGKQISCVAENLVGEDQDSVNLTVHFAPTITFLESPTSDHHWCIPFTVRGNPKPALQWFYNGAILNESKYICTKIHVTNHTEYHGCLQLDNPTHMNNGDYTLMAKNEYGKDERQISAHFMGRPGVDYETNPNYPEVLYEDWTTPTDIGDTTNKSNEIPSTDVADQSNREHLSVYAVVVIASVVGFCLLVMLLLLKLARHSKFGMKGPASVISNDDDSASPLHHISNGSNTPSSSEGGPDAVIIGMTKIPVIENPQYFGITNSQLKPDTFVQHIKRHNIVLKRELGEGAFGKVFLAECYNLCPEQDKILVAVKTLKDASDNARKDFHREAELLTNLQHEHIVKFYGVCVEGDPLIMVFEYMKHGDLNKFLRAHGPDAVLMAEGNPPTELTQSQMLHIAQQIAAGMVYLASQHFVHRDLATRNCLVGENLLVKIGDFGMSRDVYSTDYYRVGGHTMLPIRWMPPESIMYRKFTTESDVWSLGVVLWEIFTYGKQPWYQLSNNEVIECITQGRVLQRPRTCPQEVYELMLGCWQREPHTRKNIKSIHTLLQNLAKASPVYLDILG
T2 sequence (P04629 33-796): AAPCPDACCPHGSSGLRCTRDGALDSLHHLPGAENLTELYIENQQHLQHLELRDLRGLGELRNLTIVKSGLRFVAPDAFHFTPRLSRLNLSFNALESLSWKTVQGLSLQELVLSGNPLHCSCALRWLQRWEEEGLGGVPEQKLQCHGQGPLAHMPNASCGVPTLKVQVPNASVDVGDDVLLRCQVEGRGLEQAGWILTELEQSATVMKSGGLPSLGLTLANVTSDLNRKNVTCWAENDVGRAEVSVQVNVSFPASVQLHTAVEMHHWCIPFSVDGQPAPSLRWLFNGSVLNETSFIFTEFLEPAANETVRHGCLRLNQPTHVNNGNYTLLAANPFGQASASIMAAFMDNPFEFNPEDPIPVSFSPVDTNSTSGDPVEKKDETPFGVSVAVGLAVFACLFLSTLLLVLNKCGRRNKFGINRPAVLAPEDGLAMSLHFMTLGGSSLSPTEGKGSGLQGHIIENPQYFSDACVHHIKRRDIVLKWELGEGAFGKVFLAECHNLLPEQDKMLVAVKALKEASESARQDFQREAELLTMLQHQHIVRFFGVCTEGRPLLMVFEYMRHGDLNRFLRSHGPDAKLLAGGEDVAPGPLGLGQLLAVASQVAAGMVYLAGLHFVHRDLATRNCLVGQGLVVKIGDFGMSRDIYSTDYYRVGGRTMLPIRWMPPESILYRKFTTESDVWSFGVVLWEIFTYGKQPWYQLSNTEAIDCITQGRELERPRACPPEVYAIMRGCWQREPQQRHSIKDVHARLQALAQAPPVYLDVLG

CN(CCC(Oc1ccc(C(F)(F)F)cc1)c1ccccc1)C(=O)CCOCCOCCOCCOCCNC(=O)CCCC[C@@H]1SC[C@@H]2NC(=O)N[C@@H]21 (some centres unmarked) [biotinylated FLX]
Kd [1]: 2420 nM | PLA signal between biotinylated FLX and TRKB [2]: robust PLA signal | interaction of biotinylated fluoxetine with TRKA [3]: negligible

CC[C@H](C)C(=O)O[C@H]1C[C@H](O)C=C2C=C[C@H](C)[C@H](CC[C@@H](O)C[C@@H](O)CC(=O)O)[C@H]21 [pravastatin]
effect on BDNF-induced TRKB-PLC-γ1 interaction [4]: prevented | neuronal survival [5]: reduced neuronal survival | effect on BDNF-induced neurite branching [6]: prevented | effect on R,R-HNK-improved object location memory [7]: prevented | effect on BDNF-induced increase in synaptic strength (LTP) [8]: partially prevented
